How the values were obtained:
[1] = Zn(II) binding constant (Log KZnL/[Zn][L]), literature values; format: physicochemical; conditions: relative to N-hydroxyacetamide
[2] = Zn(II) binding affinity of the chelator; cited from earlier work

Row | Log KZnL/[Zn][L] fold higher than that of N-hydroxyacetamide [1] | SMILES | Log KZnL/[Zn][L] [2]
1 | about 100 fold | Cc1c(O)c(=O)ccn1C [Deferiprone, 1,2-dimethyl-3-hydroxy-4-pyridinone] | 7.19
2 | – | CC(=O)NO [N-hydroxyacetamide] | < 5

Reference: patent publication US6932960B2, “N-substituted 3-hydroxy-4-pyridinones and pharmaceuticals containing thereof” (Bristol-Myers Squibb Pharma Company, priority 2002, dated 2005)
